# In patent publication US12098217B2, “Fusion peptides as antimicrobial agents” (CENTRE NATIONAL DE LA RECHERCHE SCIENTIFIQUE, priority 2019, dated 2024):
# Tested on: E. coli D22 cells
# Conditions: FITC staining after exposure to equal amounts, FIG. 1
# Description: FIG. 1 concerns the analysis of peptide penetration into E. coli cells. (a) Fluorescence microscopy of E. coli cells exposed to the three different FITC labeled peptides.
# In order to analyse the penetration capacity of the peptides in E. coli D22 cells, FITC-labeled peptides were added to 1 ml of bacterial cultures (OD600=0.8) at a final concentration of 8 μg/ml. The cells were allowed to acquire the peptides for 1 h at 37° C., washed 3 times with 0.5 ml PBS, fixed with 1% formaldehyde solution in PBS for 45 min at room temperature, washed 3 times with 0.5 ml PBS and finally resuspended in 50 μl PBS. Cells were visualized using a Leica DM5500 microscope equipped with a 100× objective and images were processed using Fiji software. One-way ANOVA statistical analysis was performed with the R package.
smiles,measurement,value
CC[C@H](C)[C@H](NC(=O)[C@@H]1CCCN1C(=O)[C@H](CCCNC(=N)N)NC(=O)[C@@H]1CCCN1C(=O)[C@@H]1CCCN1C(=O)[C@@H](NC(=O)[C@@H]1CCCN1C(=O)[C@H](CCCNC(=N)N)NC(=O)[C@@H]1CCCN1C(=O)[C@H](CC(C)C)NC(=O)[C@H](Cc1ccc(O)cc1)NC(=O)[C@H](CO)NC(=O)CNC(=O)[C@H](CCCCN)NC(=O)[C@H](CC(=O)O)NC(=O)[C@@H](NC(=O)[C@H](CCCCN)NC(=O)c1ccc2c(c1)C(=O)OC21c2ccc(O)cc2Oc2cc(O)ccc21)C(C)C)[C@@H](C)O)C(=O)N[C@@H](Cc1ccc(O)cc1)C(=O)N[C@@H](CC(N)=O)C(=O)N[C@@H](CCCNC(=N)N)C(=O)N[C@@H](CC(N)=O)C(=O)NCC(=O)N1CCC[C@H]1C(=O)N[C@@H](CCCNC(=N)N)C(=O)N[C@@H](CCC(N)=O)C(=O)N[C@@H](CC1CCCCC1)C(=O)N[C@@H](CC(=O)O)C(=O)N[C@@H](CC(C)C)C(=O)N[C@@H](Cc1ccccc1)C(=O)O [Peptide P150],"entry into E. coli cells, times less efficiently than P122",about 3 times
